In patent US4732986A, “Benzothiazole derivatives, processes for their preparation and pharmaceutical compositions containing these compounds” (Ludwig Heumann & Co. GmbH, priority 1984, dated 1988):

What was measured:
[1] = system: acute inflammatory oedema of the paws; test: Rat's paw oedema test (carrageenin), inhibition of the increase in paw volume; type: in vivo; settings: po, 1 h, male rats, intragastral, one hour after carrageenin
Experimental: An acute inflammatory oedema of the paws was induced in male rats (100-120 g) by subplantar injection of 0.1 ml of 2% carrageenin (dissolved in aqueous 0.9% NaCl solution). The volume of the paws was measured with a volumetric paw measuring apparatus 1 hour and 4 hours after the carrageenin injection. The differences between the two measurements of the paws was calculated. The test substances were suspended in 1% tylose and administered intragastrally through a stomach tube one hour after the carrageenin injection. The control animals were only given the vehicle (1% tylose). The percentage inhibition of the increase in volume in the treated animals was obtained by a comparison with the untreated controls. The average inhibitory doses (ED50) were calculated by means of the regression curves.

leucocyte migration = test: Leucocyte migration test (carrageenin-impregnated polyester sponge); type: in vivo; settings: male rats, 50 mg/kg i.g., given immediately after sponge implantation and after 5 and 21 hours
Experimental: 2. Leucocyte migration test
A polyester sponge impregnated with 2% carrageenin solution was implanted subcutaneously in the neck region in male rats (140-150 g) (see G. A. Higgs et al, Eur. J. Pharmacol. 66, 81 (1980), A. W. Ford-Hutchinson et al, J. Pharmacol. Methods 1, 3 (1978)). The sponges were removed after 24 hours. The leucocytes which had migrated in were washed out in a PBS solution (pH 7.4, 0.5% trypsin, 10 units/ml of heparin) at 37° C. for 30 minutes.
The sponges were then carefully pressed out and centrifuged (10 minutes, 500 revs/min). The leucocytes in the washing liquid were then counted. The test substances, which were taken up in 1% tylose, and the vehicle (1% tylose) were administered intragastrally with a stomach tube immediately after implantation of the sponge and after 5 hours and 21 hours. The percentage inhibition of leucocyte migration after administration of the test substances was compared with that of the controls. The average inhibitory doses (ED50) were calculated by means of the regression graphs.

[2] = system: LTC 4-synthesis and -release (lipoxygenase); test: Inhibition of LTC 4-synthesis and -release in vitro; type: cell-based
Source text: (§1) 3. Inhibition of PGE 2- and LTC 4-synthesis and -release

[3] = system: PGE 2-synthesis and -release (cyclooxygenase); test: Inhibition of PGE 2-synthesis and -release in vitro; type: cell-based
Source text: as §1

Row | SMILES | ED50 [1] [mg/kg] | Inhibition of leucocyte migration (control = 0%) (leucocyte migration) [%] | other results
1 | CCOC(C)=NNc1nc2ccccc2s1 [Example 5, N^2-(benzothiazol-2-yl)-ethyl-acetohydrazonate] | 25 | 30 | 
2 | CC=NNc1nc2cc(Cl)ccc2s1 [Example 8] | ~80 |  | 
3 | CC=NNc1nc2ccc(C)cc2s1 [Example 7, N-(6-methylbenzothiazol-2-yl)acetaldehydehydrazone] | 25 |  | 
4 | CN(C)C=NNc1nc2ccccc2s1 [Example 1, N^1-(benzothiazol-2-yl)-N^3,N^3-dimethylformamidrazone] | 14 | 25 | LTC4 (% of controls) ([2]; at 10^-4): 51 % of controls; lipoxygenase inhibition (in words) ([2]; at 10^-4, conclusion from LTC4 test): lipoxygenase inhibition at 10^-4; LTC4 (% of controls) ([2]; at 10^-5): > 100 % of controls; LTC4 (% of controls) ([2]; at 10^-6): > 100 % of controls; PGE2 (% of controls) ([3]; at 10^-4): 29 % of controls; PGE2 (% of controls) ([3]; at 10^-5): 84 % of controls; PGE2 (% of controls) ([3]; at 10^-6): 99 % of controls; cyclooxygenase inhibition (in words) ([3]; conclusion from PGE2 test): cyclooxygenase inhibitor
5 | CN(NC=O)c1nc2ccccc2s1 [Example 4, N^2-(benzothiazol-2-yl)-N^2-methyl-formhydrazide] | 50 | 50 | 
6 | CN(C)C=NN(C)c1nc2ccccc2s1 [Example 2, N^1-(benzothiazol-2-yl)-N^1,N^3,N^3-trimethylformamidrazone] | 15 |  | 
7 | CC(=O)NNc1nc2ccc(C)cc2s1 [Example 6, N^2-(6-methylbenzothiazol-2-yl)-acetohydrazide] | 50 |  | 
